In PubChem BioAssay AID1963961 (Molecular Pharmacology Branch, DTP, NCI, 2024):

Tested on: K98450-129-R-PDC multicell spheroids, viability
Experiment: Anticancer human tumor K98450-129-R-PDC patient-derived colon adenocarcinoma cell line growth inhibition [PI3K]
Settings: for IC50: curve of first compound; for viability, T/C: stronger effect = lower value
Summary of the method: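 Combination activity was assessed by viability in multicellular tumor spheroids carrying HUVEC and MSC components. Agents were tested with PI3K inhibitors from a Cmax-based top dose (or 10 microM) downward in half-log increments.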

[1] = second compound 0.0316 µM, first compound 0.0316 µM
[2] = second compound 0.0316 µM, first compound 0.1 µM
[3] = second compound 0.0316 µM, first compound 0.316 µM
[4] = second compound 0.0316 µM, first compound 1 µM
[5] = second compound 0.1 µM, first compound 0.0316 µM
[6] = second compound 0.1 µM, first compound 0.1 µM
[7] = second compound 0.1 µM, first compound 0.316 µM
[8] = second compound 0.1 µM, first compound 1 µM
[9] = second compound 0.316 µM, first compound 0.0316 µM
[10] = second compound 0.316 µM, first compound 0.1 µM
[11] = second compound 0.316 µM, first compound 0.316 µM
[12] = second compound 0.316 µM, first compound 1 µM
[13] = second compound 1 µM, first compound 0.0316 µM
[14] = second compound 1 µM, first compound 0.1 µM
[15] = second compound 1 µM, first compound 0.316 µM
[16] = second compound 1 µM, first compound 1 µM
[17] = second compound 3.16 µM, first compound 0.0316 µM
[18] = second compound 3.16 µM, first compound 0.1 µM
[19] = second compound 3.16 µM, first compound 0.316 µM
[20] = second compound 3.16 µM, first compound 1 µM
[21] = second compound 10 µM, first compound 0.0316 µM
[22] = second compound 10 µM, first compound 0.1 µM
[23] = second compound 10 µM, first compound 0.316 µM
[24] = second compound 10 µM, first compound 1 µM
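Further: spheroids exposed to agents for seven days before read-out.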

`CC(C)NCC(C(=O)N1CCN(c2ncnc3c2C(C)CC3O)CC1)c1ccc(Cl)cc1` (centres undefined) + CC(Nc1ncnc2nc[nH]c12)c1cc2cccc(Cl)c2c(=O)n1-c1ccccc1 was tested, and the IC50 (second compound 0.0316 µM) was > 10 µM, the IC50 (second compound 0.1 µM) was > 10 µM and the IC50 (second compound 0.316 µM) was > 10 µM. For the same compound, the IC50 (second compound 1 µM) was > 10 µM, the IC50 (second compound 3.16 µM) was > 10 µM and the IC50 (second compound 10 µM) was > 10 µM. The viability, T/C [1] was 98.2%, the viability, T/C [2] was 107% and the viability, T/C [3] was 101%. For the same compound, the viability, T/C [4] was 96.4%, the viability, T/C (second compound 0.0316 µM, first compound 3.16 µM) was 102% and the viability, T/C (second compound 0.0316 µM, first compound 10 µM) was 98.5%. For the same compound, the viability, T/C [5] was 111%, the viability, T/C [6] was 115% and the viability, T/C [7] was 99.3%. It also gave a viability, T/C [8] of 89.6%, a viability, T/C (second compound 0.1 µM, first compound 3.16 µM) of 94.9% and a viability, T/C (second compound 0.1 µM, first compound 10 µM) of 83.4%. It also gave a viability, T/C [9] of 96.6%, a viability, T/C [10] of 97.2% and a viability, T/C [11] of 87.1%. For the same compound, the viability, T/C [12] was 105%, the viability, T/C (second compound 0.316 µM, first compound 3.16 µM) was 105% and the viability, T/C (second compound 0.316 µM, first compound 10 µM) was 102%. For the same compound, the viability, T/C [13] was 106%, the viability, T/C [14] was 100% and the viability, T/C [15] was 104%. For the same compound, the viability, T/C [16] was 98.4%, the viability, T/C (second compound 1 µM, first compound 3.16 µM) was 115% and the viability, T/C (second compound 1 µM, first compound 10 µM) was 101%. It also gave a viability, T/C [17] of 79.2%, a viability, T/C [18] of 88.4% and a viability, T/C [19] of 101%. It also gave a viability, T/C [20] of 99.2%, a viability, T/C (second compound 3.16 µM, first compound 3.16 µM) of 97.5% and a viability, T/C (second compound 3.16 µM, first compound 10 µM) of 85.7%. It also gave a viability, T/C [21] of 110%, a viability, T/C [22] of 89.5% and a viability, T/C [23] of 77.5%. It also gave a viability, T/C [24] of 88.6%, a viability, T/C (second compound 10 µM, first compound 3.16 µM) of 103% and a viability, T/C (second compound 10 µM, first compound 10 µM) of 87.2%.
For `CCN1CCN(Cc2ccc(Nc3ncc(F)c(-c4cc(F)c5nc(C)n(C(C)C)c5c4)n3)nc2)CC1` + CC(Nc1ncnc2nc[nH]c12)c1cc2cccc(Cl)c2c(=O)n1-c1ccccc1, the IC50 (second compound 0.0316 µM) was > 1 µM, the IC50 (second compound 0.1 µM) was > 1 µM and the IC50 (second compound 0.316 µM) was > 1 µM. The IC50 (second compound 1 µM) was > 1 µM, the IC50 (second compound 3.16 µM) was > 1 µM and the IC50 (second compound 10 µM) was > 1 µM. For the same compound, the viability, T/C (second compound 0.0316 µM, first compound 0.00316 µM) was 111%, the viability, T/C (second compound 0.0316 µM, first compound 0.01 µM) was 102% and the viability, T/C [1] was 109%. The viability, T/C [2] was 83.5%, the viability, T/C [3] was 81.6% and the viability, T/C [4] was 87%. For the same compound, the viability, T/C (second compound 0.1 µM, first compound 0.00316 µM) was 106%, the viability, T/C (second compound 0.1 µM, first compound 0.01 µM) was 107% and the viability, T/C [5] was 91.9%. It also gave a viability, T/C [6] of 87.7%, a viability, T/C [7] of 87% and a viability, T/C [8] of 95%. The viability, T/C (second compound 0.316 µM, first compound 0.00316 µM) was 101%, the viability, T/C (second compound 0.316 µM, first compound 0.01 µM) was 108% and the viability, T/C [9] was 94.6%. For the same compound, the viability, T/C [10] was 90.3%, the viability, T/C [11] was 89.7% and the viability, T/C [12] was 89.1%. It also gave a viability, T/C (second compound 1 µM, first compound 0.00316 µM) of 93.1%, a viability, T/C (second compound 1 µM, first compound 0.01 µM) of 92.5% and a viability, T/C [13] of 95.9%. It also gave a viability, T/C [14] of 89.4%, a viability, T/C [15] of 84.8% and a viability, T/C [16] of 102%. For the same compound, the viability, T/C (second compound 3.16 µM, first compound 0.00316 µM) was 95.1%, the viability, T/C (second compound 3.16 µM, first compound 0.01 µM) was 91.6% and the viability, T/C [17] was 81.1%. For the same compound, the viability, T/C [18] was 90.8%, the viability, T/C [19] was 82.4% and the viability, T/C [20] was 83.2%. It also gave a viability, T/C (second compound 10 µM, first compound 0.00316 µM) of 86%, a viability, T/C (second compound 10 µM, first compound 0.01 µM) of 83.5% and a viability, T/C [21] of 81.9%. The viability, T/C [22] was 82.5%, the viability, T/C [23] was 86.1% and the viability, T/C [24] was 78.2%.
